According to US11773078B2, “Furin inhibitors” (Glaxosmithkline Intellectual Property Development Limited, priority 2018, dated 2023):

Assays:
[1] = target: T1, Furin (108-574-Tev-Flag-His) enzyme (Homo sapiens, UniProt P09958); experiment: Furin enzyme assay; format: biochemical; settings: for IC50: read-out: furin enzyme pIC50 (converted)
T1 construct: Furin (108-574-Tev-Flag-His) enzyme was expressed and purified from CHO cells; TEV cleavage site (C); FLAG (C); His (C); made in house; host or cells: CHO cells
Outline: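 Compounds ran as 11-point threefold dilutions (0.00017–10 μM final) against 40 pM furin, purified from CHO cells, for 2 h at room temperature. Buffer: 100 mM HEPES pH7.5 with 1 mM CaCl2 and 0.005% Triton X-100. Envision readout. Four-parameter curve gives pXC50.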

[2] = target: T2, furin (endogenous protease) in U20S cells (Homo sapiens, UniProt P09958); experiment: Furin cell-based assay (image-based, Golgi-targeted GFP with BMP10 furin/PCSK cleavage site); settings: 24-hour incubation, read-out: furin golgi cell pXC50 (converted);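 also: Read-out is mean GFP fluorescence of Golgi puncta per cell by high-content imaging, retained when furin inhibited, over an eleven-point 0.00017–10 µM series, four-parameter fit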
T2 construct: the endogenous protease cleaves GFP; endogenous in cells; host or cells: U2OS cells transduced with a BacMam reporter
T2 sequence (P09958 108-794): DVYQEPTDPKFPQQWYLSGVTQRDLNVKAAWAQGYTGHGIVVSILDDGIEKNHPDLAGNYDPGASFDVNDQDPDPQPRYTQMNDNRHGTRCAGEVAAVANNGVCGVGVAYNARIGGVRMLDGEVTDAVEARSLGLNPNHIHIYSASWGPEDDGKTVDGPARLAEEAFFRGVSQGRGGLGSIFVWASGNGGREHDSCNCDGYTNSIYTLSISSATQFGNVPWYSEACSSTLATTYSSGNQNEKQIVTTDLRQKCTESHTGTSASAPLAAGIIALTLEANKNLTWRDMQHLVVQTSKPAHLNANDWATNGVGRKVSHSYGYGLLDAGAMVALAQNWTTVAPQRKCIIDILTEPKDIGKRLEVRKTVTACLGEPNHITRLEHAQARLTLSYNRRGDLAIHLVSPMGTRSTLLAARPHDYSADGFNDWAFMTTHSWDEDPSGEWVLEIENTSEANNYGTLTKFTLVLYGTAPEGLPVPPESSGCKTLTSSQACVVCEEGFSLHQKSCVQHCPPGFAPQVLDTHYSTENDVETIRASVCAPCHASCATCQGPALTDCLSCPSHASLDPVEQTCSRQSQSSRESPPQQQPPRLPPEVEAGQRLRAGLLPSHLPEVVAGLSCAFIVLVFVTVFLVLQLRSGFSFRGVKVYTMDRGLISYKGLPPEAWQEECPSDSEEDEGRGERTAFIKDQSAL
Description: This assay uses an image-based platform to evaluate the intracellular activity of compounds of the invention. Reactions were performed in black 384-well, tissue culture-treated, clear bottom plates (Greiner). Compounds under analysis were dissolved in DMSO (1.0 mM) and serially diluted 1 to 3 with DMSO through eleven dilutions. This creates a final compound concentration range from 0.00017 to 10 μM, and 0.1 μL of each concentration was transferred to the corresponding well of the assay plate. Assays were initiated by the addition of U20S cells simultaneously transduced with a BacMam-delivered construct containing a Golgi-targeting sequence followed by a 12-amino acid furin/PCSK cleavage site from Bone Morphogenic Protein 10 (BMP10) and then GFP at the C terminus. […] Briefly, frozen cells are thawed in assay media (Dulbecco's Modified Eagles Medium Nutritional Mixture F-12 (Ham) without phenol red containing 5% FBS) and diluted to deliver 6000 cells/well (50 μL) to the plate using a Multidrop Combi (Thermo).
After a 24-hour incubation period at 37° C., the cells are stained with Cell Mask Deep Red, fixed in paraformaldehyde and the nuclei stained using Ho33342. The Golgi-targeted GFP forms bright punctate clusters within the cell. In the absence of a furin inhibitor, the endogenous protease cleaves GFP from its N-acetylgalactosaminyltransferase-2 Golgi tether, releasing GFP into the Golgi lumen where fluorescence is diluted below the threshold of assay sensitivity. […] Cellular GFP intensity is determined by image-based acquisition (Incell 2200, Perkin Elmer) at 40× magnification with 4 fields measured per well. Multi-scale tophat segmentation is used to identify the GFP-tagged puncta and to quantitate the average fluorescence of all puncta on a per cell basis. Cellular toxicity is determined in parallel.
Data were analyzed using AbaseXE 7.3, utilizing a four-parameter curve fit equation. The following values were used to define limits and/or constraints for each of the four parameters: • Minimum—limit −10 to 10 • Maximum—90 to 110 • Slope—limit 0.5 to 2.0 • pXC50 confidence interval—10
Raw counts obtained from the respective plate reader (Perkin Elmer) were captured for data analysis. Curves were generated using the equation: Y=A+[(B−A)/(1+(10^C/x)^D)] • where: A=minimum response • B=maximum response • C=log 10*XC50 • D=slope factor • x=log 10 compound concentration [M]
The results were recorded as pXC50 values (−C in the above equation)

T1 sequence (P09958 108-574): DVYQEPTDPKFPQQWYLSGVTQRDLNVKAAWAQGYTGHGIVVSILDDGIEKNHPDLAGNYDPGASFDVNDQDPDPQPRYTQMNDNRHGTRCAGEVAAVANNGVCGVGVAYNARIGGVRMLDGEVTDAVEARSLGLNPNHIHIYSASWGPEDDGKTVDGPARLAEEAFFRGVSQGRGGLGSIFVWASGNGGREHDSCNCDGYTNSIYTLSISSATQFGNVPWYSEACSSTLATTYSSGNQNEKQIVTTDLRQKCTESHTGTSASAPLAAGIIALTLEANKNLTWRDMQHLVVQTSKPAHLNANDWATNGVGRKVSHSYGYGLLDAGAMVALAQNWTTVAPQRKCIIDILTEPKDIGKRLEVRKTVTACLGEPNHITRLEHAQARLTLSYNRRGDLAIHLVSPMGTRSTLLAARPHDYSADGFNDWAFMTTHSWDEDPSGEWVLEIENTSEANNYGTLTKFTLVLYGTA

| Compound | furin enzyme pIC50 [1] | EC50 [2] | IC50 [1] |
| --- | --- | --- | --- |
| CNCc1cc(Oc2ccc(N3C[C@@H]4C[C@H]3CN4)nc2)cc(-c2cc(Cl)cc(Cl)c2)c1 [Example 202, 1-(5-((6-((1S,4S)-2,5-diazabicyclo[2.2.1]heptan-2-yl)pyridin-3-yl)oxy)-3′,5′-dichloro-[1,1′-biphenyl]-3-yl)-N-methylmethanamine] | 8.6 | 39.8 nM |  |
| CN1C[C@@H]2C[C@H]1CN2c1ccc(Oc2cc(CN3CCC(CC(=O)O)CC3)cc(-c3cc(Cl)cc(Cl)c3)n2)cn1 [Example 203, 2-(1-((2-(3,5-dichlorophenyl)-6-((6-((1S,4S)-5-methyl-2,5-diazabicyclo[2.2.1]heptan-2-yl)pyridin-3-yl)oxy)pyridin-4-yl)methyl)piperidin-4-yl)acetic acid] | 8.7 | 12.6 nM |  |
| CC(CCN1CCN(c2ncc(Oc3cc(CN4CCC(CC(=O)O)CC4)cc(-c4cc(Cl)cc(Cl)c4)n3)cn2)CC1)[S+](C)[O-] (stereo not shown) [Example 204, 2-(1-((2-(3,5-Dichlorophenyl)-6-((2-(4-(3-(methylsulfinyl)butyl)piperazin-1-yl)pyrimidin-5-yl)oxy)pyridin-4-yl)methyl)piperidin-4-yl)acetic acid] | 8.7 | 31.6 nM |  |
| CC(CCN1CCN(c2ncc(Oc3cc(CN4CCC(CC(=O)O)CC4)cc(-c4cc(Cl)cc(Cl)c4)n3)cn2)CC1)S(C)(=O)=O (stereo not shown) [Example 205, 2-(1-((2-(3,5-Dichlorophenyl)-6-((2-(4-(3-(methylsulfonyl)butyl)piperazin-1-yl)pyrimidin-5-yl)oxy)pyridin-4-yl)methyl)piperidin-4-yl)acetic acid] | 8.6 | 15.8 nM |  |
| CNC(=O)OCC1CCN(Cc2cc(Oc3cnc(N4CCN(C(C)CCC(=O)O)CC4)nc3)nc(-c3cc(Cl)cc(Cl)c3)c2)CC1 (stereo not shown) [Example 208] |  | 10 nM | 0.0126 nM |
| CNC(=O)OCC1CCN(Cc2cc(Oc3cnc(N4CCN(C(C)CCO)CC4)nc3)nc(-c3cc(Cl)cc(Cl)c3)c2)CC1 (stereo not shown) [Example 209, (1-((2-(3,5-dichlorophenyl)-6-((2-(4-(4-hydroxybutan-2-yl)piperazin-1-yl)pyrimidin-5-yl)oxy)pyridin-4-yl)methyl)piperidin-4-yl)methyl methylcarbamate] | 9.6 | 2.51 nM |  |
| CNC(=O)OCC1CCN(Cc2cc(Oc3cnc(N4CCN(CCCS(C)(=O)=O)CC4)nc3)nc(-c3cc(Cl)cc(Cl)c3)c2)CC1 [Example 210, (1-((2-(3,5-dichlorophenyl)-6-((2-(4-(3-(methylsulfonyl)propyl)piperazin-1-yl)pyrimidin-5-yl)oxy)pyridin-4-yl)methyl)piperidin-4-yl)methyl methylcarbamate] | 8.7 | 3.98 nM |  |
| CNC(=O)OCC1CCN(Cc2cc(Oc3cnc(N4CCN(C5CC(C(=O)O)C5)CC4)nc3)nc(-c3cc(Cl)cc(Cl)c3)c2)CC1 (stereo not shown) [Example 211, 3-(4-(5-((6-(3,5-dichlorophenyl)-4-((4-(((methylcarbamoyl)oxy)methyl)piperidin-1-yl)methyl)pyridin-2-yl)oxy)pyrimidin-2-yl)piperazin-1-yl)cyclobutanecarboxylic acid] | 10.1 | 25.1 nM |  |
| CN1CCN(c2ccc(Oc3cc(CN4CCC(CC(=O)O)CC4)cc(-c4cc(Cl)cc(Cl)c4)n3)cn2)CC1 [Example 212, 2-(1-((2-(3,5-dichlorophenyl)-6-((6-(4-methylpiperazin-1-yl)pyridin-3-yl)oxy)pyridin-4-yl)methyl)piperidin-4-yl)acetic acid] | 9 | 31.6 nM |  |
| CC(CC1CCN(Cc2cc(Oc3ccc(N4CCN(C)CC4)nc3)nc(-c3cc(Cl)cc(Cl)c3)c2)CC1)C(=O)O (stereo not shown) [Example 213, 3-(1-((2-(3,5-dichlorophenyl)-6-((6-(4-methylpiperazin-1-yl)pyridin-3-yl)oxy)pyridin-4-yl)methyl)piperidin-4-yl)-2-methylpropanoic acid] | 8.9 | 25.1 nM |  |
| CC(=O)NCC1CCN(Cc2cc(Oc3cnc(N4CCN(CCC(C)S(C)(=O)=O)CC4)nc3)nc(-c3cc(Cl)cc(Cl)c3)c2)CC1 (stereo not shown) [Example 214, N-((1-((2-(3,5-dichlorophenyl)-6-((2-(4-(3-(methylsulfonyl)butyl)piperazin-1-yl)pyrimidin-5-yl)oxy)pyridin-4-yl)methyl)piperidin-4-yl)methyl)acetamide] | 9.1 | 2.51 nM |  |
| CC(=O)NCC1CCN(Cc2cc(Oc3cnc(N4CCN(C(C)CCC(=O)O)CC4)nc3)nc(-c3cc(Cl)cc(Cl)c3)c2)CC1 (stereo not shown) [Example 215, 4-(4-(5-((4-((4-(acetamidomethyl)piperidin-1-yl)methyl)-6-(3,5-dichlorophenyl)pyridin-2-yl)oxy)pyrimidin-2-yl)piperazin-1-yl)pentanoic acid] |  | 10 nM | 0.398 nM |
| CC(=O)NCC1CCN(Cc2cc(Oc3cnc(N4CCN(C5CC(C(=O)O)C5)CC4)nc3)nc(-c3cc(Cl)cc(Cl)c3)c2)CC1 (stereo not shown) [Example 216, 3-(4-(5-((4-((4-(acetamidomethyl)piperidin-1-yl)methyl)-6-(3,5-dichlorophenyl)pyridin-2-yl)oxy)pyrimidin-2-yl)piperazin-1-yl)cyclobutanecarboxylic acid] | 10.2 | 15.8 nM |  |
| COC(=O)NCC1CCN(Cc2cc(Oc3ccc(N4CCN(CCCS(C)(=O)=O)CC4)nc3)nc(-c3cc(Cl)cc(Cl)c3)c2)CC1 [Example 217, methyl ((1-((2-(3,5-dichlorophenyl)-6-((6-(4-(3-(methylsulfonyl)propyl)piperazin-1-yl)pyridin-3-yl)oxy)pyridin-4-yl)methyl)piperidin-4-yl)methyl)carbamate] | 9.8 | 5.01 nM |  |
| CC(=O)NCC1CCN(Cc2cc(Oc3ccc(N4CCN(CCC(C)S(C)(=O)=O)CC4)nc3)nc(-c3cc(Cl)cc(Cl)c3)c2)CC1 (stereo not shown) [Example 218, N-((1-((2-(3,5-dichlorophenyl)-6-((6-(4-(3-(methylsulfonyl)butyl)piperazin-1-yl)pyridin-3-yl)oxy)pyridin-4-yl)methyl)piperidin-4-yl)methyl)acetamide] | 10.1 | 2 nM |  |
| CNC(=O)NCC1CCN(Cc2cc(Oc3ccc(N4CCN(CCC(C)S(C)(=O)=O)CC4)nc3)nc(-c3cc(Cl)cc(Cl)c3)c2)CC1 (stereo not shown) [Example 219, 1-((1-((2-(3,5-dichlorophenyl)-6-((6-(4-(3-(methylsulfonyl)butyl)piperazin-1-yl)pyridin-3-yl)oxy)pyridin-4-yl)methyl)piperidin-4-yl)methyl)-3-methylurea] | 9.8 | 0.398 nM |  |
| CNC(=O)NCC1CCN(Cc2cc(Oc3cnc(N4CCN(CCC(C)S(C)(=O)=O)CC4)nc3)nc(-c3cc(Cl)cc(Cl)c3)c2)CC1 (stereo not shown) [Example 220, 1-((1-((2-(3,5-dichlorophenyl)-6-((2-(4-(3-(methylsulfonyl)butyl)piperazin-1-yl)pyrimidin-5-yl)oxy)pyridin-4-yl)methyl)piperidin-4-yl)methyl)-3-methylurea] |  | 2.51 nM | 0.0631 nM |
| CNC(=O)NCC1CCN(Cc2cc(Oc3cnc(N4CCN(C5CC(C(=O)O)C5)CC4)nc3)nc(-c3cc(Cl)cc(Cl)c3)c2)CC1 (stereo not shown) [Example 221, 3-(4-(5-((6-(3,5-dichlorophenyl)-4-((4-((3-methylureido)methyl)piperidin-1-yl)methyl)pyridin-2-yl)oxy)pyrimidin-2-yl)piperazin-1-yl)cyclobutanecarboxylic acid] | 10.4 | 5.01 nM |  |
| COC(=O)NCC1CCN(Cc2cc(Oc3cnc(N4CCN(C(C)CCC(=O)O)CC4)nc3)nc(-c3cc(Cl)cc(Cl)c3)c2)CC1 (stereo not shown) [Example 222, 4-(4-(5-((6-(3,5-dichlorophenyl)-4-((4-(((methoxycarbonyl)amino)methyl)piperidin-1-yl)methyl)pyridin-2-yl)oxy)pyrimidin-2-yl)piperazin-1-yl)pentanoic acid] | 10.2 | 25.1 nM |  |
| COC(=O)NCC1CCN(Cc2cc(Oc3cnc(N4CCN(CCCS(C)(=O)=O)CC4)nc3)nc(-c3cc(Cl)cc(Cl)c3)c2)CC1 [Example 223, methyl ((1-((2-(3,5-dichlorophenyl)-6-((2-(4-(3-(methylsulfonyl)propyl)piperazin-1-yl)pyrimidin-5-yl)oxy)pyridin-4-yl)methyl)piperidin-4-yl)methyl)carbamate] | 9.8 | 5.01 nM |  |
| CN1CCN(c2ncc(Oc3cc(CN4CC[C@@H]5[C@H](CC4)[C@H]5CC(=O)O)cc(-c4cc(Cl)cc(Cl)c4)n3)cn2)CC1 [Example 224, 2-((1R,7S,8r)-4-((2-(3,5-dichlorophenyl)-6-((2-(4-methylpiperazin-1-yl)pyrimidin-5-yl)oxy)pyridin-4-yl)methyl)-4-azabicyclo[5.1.0]octan-8-yl)acetic acid] | 8.7 | 7.94 nM |  |
| CN1CCN(c2ncc(Oc3cc(CN4CCC(OC(C)(C)C(=O)O)CC4)cc(-c4cc(Cl)cc(Cl)c4)n3)cn2)CC1 [Example 225, 2-((1-((2-(3,5-dichlorophenyl)-6-((2-(4-methylpiperazin-1-yl)pyrimidin-5-yl)oxy)pyridin-4-yl)methyl)piperidin-4-yl)oxy)-2-methylpropanoic acid] | 8.5 | 10 nM |  |
| CN1CCN(c2ncc(Oc3cc(CN4CCC(CC(=O)O)CC4)cc(-c4cc(Cl)cc(Cl)c4)n3)cn2)CC(O)C1 (stereo not shown) [Example 226, 2-(1-((2-(3,5-dichlorophenyl)-6-((2-(6-hydroxy-4-methyl-1,4-diazepan-1-yl)pyrimidin-5-yl)oxy)pyridin-4-yl)methyl)piperidin-4-yl)acetic acid] |  | 15.8 nM | 2.51 nM |
